Reference: ChEMBL document CHEMBL4715855, “N-phenyl ureidobenzenesulfonates, a novel class of promising human dihydroorotate dehydrogenase inhibitors” (Bioorg Med Chem, 2020)
Each block holds one compound with its values, some of them ahead of it.

How the values were obtained:
Type in all cases: functional, cell-based
M21 [1] = test: Antiproliferative activity against human M21 cells assessed as cell growth inhibition measured after 48 hrs by SRB assay; settings: M21, 48 h
ACHN = test: Antiproliferative activity against human ACHN cells assessed as cell growth inhibition measured after 48 hrs by sulforhodamine B assay
Malme-3M = test: Antiproliferative activity against human Malme-3M cells assessed as cell growth inhibition measured after 48 hrs by sulforhodamine B assay
SN12C = test: Antiproliferative activity against human SN12C cells assessed as cell growth inhibition measured after 48 hrs by sulforhodamine B assay
UO-31 = test: Antiproliferative activity against human UO-31 cells assessed as cell growth inhibition measured after 48 hrs by sulforhodamine B assay; settings: UO-31, 48 h
OVCAR-3 = test: Antiproliferative activity against human OVCAR-3 cells assessed as cell growth inhibition measured after 48 hrs by sulforhodamine B assay; settings: OVCAR-3, 48 h
IGROV-1 = test: Antiproliferative activity against human IGROV-1 cells assessed as cell growth inhibition measured after 48 hrs by sulforhodamine B assay; settings: IGROV-1, 48 h
SK-MEL-2 = test: Antiproliferative activity against human SK-MEL-2 cells assessed as cell growth inhibition measured after 48 hrs by sulforhodamine B assay; settings: SK-MEL-2, 48 h
NCI-H522 = test: Antiproliferative activity against human NCI-H522 cells assessed as cell growth inhibition measured after 48 hrs by sulforhodamine B assay; settings: NCI-H522, 48 h
HT-1080 [2] = test: Antiproliferative activity against human HT-1080 cells assessed as cell growth inhibition measured after 48 hrs by SRB assay; settings: HT-1080, 48 h
COLO 205 = test: Antiproliferative activity against human COLO 205 cells assessed as cell growth inhibition measured after 48 hrs by sulforhodamine B assay; settings: COLO 205, 48 h
M21 [3] = test: Antiproliferative activity against human M21 cells assessed as cell growth inhibition measured after 48 hrs in presence of uridine by SRB assay; settings: M21, 48 h
BT-549 = test: Antiproliferative activity against human BT-549 cells assessed as cell growth inhibition measured after 48 hrs by sulforhodamine B assay; settings: BT-549, 48 h
NCI-H322M = test: Antiproliferative activity against human NCI-H322M cells assessed as cell growth inhibition measured after 48 hrs by sulforhodamine B assay
T47D = test: Antiproliferative activity against human T47D cells assessed as cell growth inhibition measured after 48 hrs by sulforhodamine B assay
RPMI-8226 = test: Antiproliferative activity against human RPMI-8226 cells assessed as cell growth inhibition measured after 48 hrs by sulforhodamine B assay; settings: RPMI-8226, 48 h
SR = test: Antiproliferative activity against human SR cells assessed as cell growth inhibition measured after 48 hrs by sulforhodamine B assay
OVCAR-4 = test: Antiproliferative activity against human OVCAR-4 cells assessed as cell growth inhibition measured after 48 hrs by sulforhodamine B assay; settings: OVCAR-4, 48 h
HCC 2998 = test: Antiproliferative activity against human HCC 2998 cells assessed as cell growth inhibition measured after 48 hrs by sulforhodamine B assay; settings: HCC 2998, 48 h
K562 = test: Antiproliferative activity against human K562 cells assessed as cell growth inhibition incubated for 48 hrs by sulforhodamine B assay; settings: K562, 48 h
M14 = test: Antiproliferative activity against human M14 cells assessed as cell growth inhibition measured after 48 hrs by sulforhodamine B assay; settings: M14, 48 h
NCI/ADR-RES = test: Antiproliferative activity against human NCI/ADR-RES cells assessed as cell growth inhibition measured after 48 hrs by sulforhodamine B assay
SW-620 = test: Antiproliferative activity against human SW-620 cells assessed as cell growth inhibition measured after 48 hrs by sulforhodamine B assay; settings: SW-620, 48 h
DU-145 = test: Antiproliferative activity against human DU-145 cells assessed as cell growth inhibition measured after 48 hrs by sulforhodamine B assay; settings: DU-145, 48 h
Hs-578T = test: Antiproliferative activity against human Hs-578T cells assessed as cell growth inhibition measured after 48 hrs by sulforhodamine B assay
HCT-116 = test: Antiproliferative activity against human HCT-116 cells assessed as cell growth inhibition measured after 48 hrs by sulforhodamine B assay; settings: HCT-116, 48 h
LOX IMVI = test: Antiproliferative activity against human LOX IMVI cells assessed as cell growth inhibition measured after 48 hrs by sulforhodamine B assay
NCI-H460 = test: Antiproliferative activity against human NCI-H460 cells assessed as cell growth inhibition measured after 48 hrs by sulforhodamine B assay; settings: NCI-H460, 48 h
HOP-92 = test: Antiproliferative activity against human HOP-92 cells assessed as cell growth inhibition measured after 48 hrs by sulforhodamine B assay; settings: HOP-92, 48 h
MCF7 [4] = test: Antiproliferative activity against human MCF7 cells assessed as cell growth inhibition measured after 48 hrs in presence of uridine by SRB assay; settings: MCF7, 48 h
TK-10 = test: Antiproliferative activity against human TK-10 cells assessed as cell growth inhibition measured after 48 hrs by sulforhodamine B assay; settings: TK-10, 48 h
U-251 = test: Antiproliferative activity against human U-251 cells assessed as cell growth inhibition measured after 48 hrs by sulforhodamine B assay; settings: U-251, 48 h
SK-OV-3 = test: Antiproliferative activity against human SK-OV-3 cells assessed as cell growth inhibition measured after 48 hrs by sulforhodamine B assay; settings: SK-OV-3, 48 h
CCRF-CEM = test: Antiproliferative activity against human CCRF-CEM cells assessed as cell growth inhibition measured after 48 hrs by sulforhodamine B assay
SF-268 = test: Antiproliferative activity against human SF-268 cells assessed as cell growth inhibition measured after 48 hrs by sulforhodamine B assay; settings: SF-268, 48 h
HT-29 [5] = test: Antiproliferative activity against human HT-29 cells assessed as cell growth inhibition measured after 48 hrs by SRB assay; settings: HT-29, 48 h
SF-295 = test: Antiproliferative activity against human SF-295 cells assessed as cell growth inhibition measured after 48 hrs by sulforhodamine B assay; settings: SF-295, 48 h
NCI-H226 = test: Antiproliferative activity against human NCI-H226 cells assessed as cell growth inhibition measured after 48 hrs by sulforhodamine B assay; settings: NCI-H226, 48 h
A498 = test: Antiproliferative activity against human A498 cells assessed as cell growth inhibition measured after 48 hrs by sulforhodamine B assay; settings: A498, 48 h
HOP-62 = test: Antiproliferative activity against human HOP-62 cells assessed as cell growth inhibition measured after 48 hrs by sulforhodamine B assay; settings: HOP-62, 48 h
SNB-75 = test: Antiproliferative activity against human SNB-75 cells assessed as cell growth inhibition measured after 48 hrs by sulforhodamine B assay; settings: SNB-75, 48 h
NCI-H23 = test: Antiproliferative activity against human NCI-H23 cells assessed as cell growth inhibition measured after 48 hrs by sulforhodamine B assay; settings: NCI-H23, 48 h
786-0 = test: Antiproliferative activity against human 786-0 cells assessed as cell growth inhibition measured after 48 hrs by sulforhodamine B assay; settings: 786-0, 48 h
MCF7 [6] = test: Antiproliferative activity against human MCF7 cells assessed as cell growth inhibition measured after 48 hrs by SRB assay; settings: MCF7, 48 h
SNB-19 = test: Antiproliferative activity against human SNB-19 cells assessed as cell growth inhibition measured after 48 hrs by sulforhodamine B assay; settings: SNB-19, 48 h
SK-MEL-5 = test: Antiproliferative activity against human SK-MEL-5 cells assessed as cell growth inhibition measured after 48 hrs by sulforhodamine B assay; settings: SK-MEL-5, 48 h
HT-29 [7] = test: Antiproliferative activity against human HT-29 cells assessed as cell growth inhibition measured after 48 hrs in presence of uridine by SRB assay; settings: HT-29, 48 h
UACC-257 = test: Antiproliferative activity against human UACC-257 cells assessed as cell growth inhibition measured after 48 hrs by sulforhodamine B assay; settings: UACC-257, 48 h
OVCAR-8 = test: Antiproliferative activity against human OVCAR-8 cells assessed as cell growth inhibition measured after 48 hrs by sulforhodamine B assay; settings: OVCAR-8, 48 h
PC-3 = test: Antiproliferative activity against human PC-3 cells assessed as cell growth inhibition measured after 48 hrs by sulforhodamine B assay; settings: PC-3, 48 h
A549 = test: Antiproliferative activity against human A549/ATCC cells assessed as cell growth inhibition measured after 48 hrs by sulforhodamine B assay; settings: A549, 48 h
CAKI-1 = test: Antiproliferative activity against human CAKI-1 cells assessed as cell growth inhibition measured after 48 hrs by sulforhodamine B assay; settings: CAKI-1, 48 h
MDA-MB-435 = test: Antiproliferative activity against human MDA-MB-435 cells assessed as cell growth inhibition measured after 48 hrs by sulforhodamine B assay; settings: MDA-MB-435, 48 h
SK-MEL-28 = test: Antiproliferative activity against human SK-MEL-28 cells assessed as cell growth inhibition measured after 48 hrs by sulforhodamine B assay; settings: SK-MEL-28, 48 h
UACC-62 = test: Antiproliferative activity against human UACC-62 cells assessed as cell growth inhibition measured after 48 hrs by sulforhodamine B assay; settings: UACC-62, 48 h
KM12 = test: Antiproliferative activity against human KM12 cells assessed as cell growth inhibition measured after 48 hrs by sulforhodamine B assay; settings: KM12, 48 h
MOLT-4 = test: Antiproliferative activity against human MOLT-4 cells assessed as cell growth inhibition measured after 48 hrs by sulforhodamine B assay; settings: MOLT-4, 48 h
HCT-15 = test: Antiproliferative activity against human HCT-15 cells assessed as cell growth inhibition measured after 48 hrs by sulforhodamine B assay; settings: HCT-15, 48 h
HT-1080 [8] = test: Antiproliferative activity against human HT-1080 cells assessed as cell growth inhibition measured after 48 hrs in presence of uridine by SRB assay; settings: HT-1080, 48 h
MDA-MB-231 = test: Antiproliferative activity against human MDA-MB-231/ATCC cells assessed as cell growth inhibition measured after 48 hrs by sulforhodamine B assay; settings: MDA-MB-231, 48 h
SF-539 = test: Antiproliferative activity against human SF-539 cells assessed as cell growth inhibition measured after 48 hrs by sulforhodamine B assay; settings: SF-539, 48 h
OVCAR-5 = test: Antiproliferative activity against human OVCAR-5 cells assessed as cell growth inhibition measured after 48 hrs by sulforhodamine B assay; settings: OVCAR-5, 48 h
RXF 393 = test: Antiproliferative activity against human RXF 393 cells assessed as cell growth inhibition measured after 48 hrs by sulforhodamine B assay; settings: RXF 393, 48 h

- IC50 (ACHN): 151 nM
- IC50 (OVCAR-3): 3720 nM
- IC50 (SK-MEL-2): 61700 nM
- IC50 (NCI-H522): 2000 nM
- IC50 (HT-1080 [2]): 210 nM
- IC50 (COLO 205): 513 nM
- IC50 (BT-549): 57500 nM
- IC50 (NCI-H322M): 15100 nM
- IC50 (T47D): 17000 nM
- IC50 (RPMI-8226): 372 nM
- IC50 (OVCAR-4): 2750 nM
- IC50 (HCC 2998): 9550 nM
- IC50 (K562): 145 nM
- IC50 (SW-620): 380 nM
- IC50 (DU-145): 263 nM
- IC50 (HCT-116): 87.1 nM
- IC50 (NCI-H460): 129 nM
- IC50 (MCF7 [4]): 25000 nM
- IC50 (U-251): 195 nM
- IC50 (SK-OV-3): 16200 nM
- IC50 (CCRF-CEM): 282 nM
- IC50 (HT-29 [5]; read-out: IC50): 590 nM
- IC50 (HT-29 [5]; read-out: pIC50 (converted)): 372 nM
- IC50 (NCI-H226): 19500 nM
- IC50 (NCI-H23): 21400 nM
- IC50 (786-0): 195 nM
- IC50 (MCF7 [6]; read-out: IC50): 5100 nM
- IC50 (MCF7 [6]; read-out: pIC50 (converted)): 269 nM
- IC50 (SK-MEL-5): 1380 nM
- IC50 (HT-29 [7]): 24000 nM
- IC50 (OVCAR-8): 324 nM
- IC50 (PC-3): 759 nM
- IC50 (A549): 234 nM
- IC50 (MDA-MB-435): 372 nM
- IC50 (SK-MEL-28): 10000 nM
- IC50 (MOLT-4): 89.1 nM
- IC50 (HCT-15): 56.2 nM
- IC50 (HT-1080 [8]): 17000 nM
- IC50 (MDA-MB-231): 3630 nM
- IC50 (OVCAR-5): 38900 nM
SMILES: Cc1c(-c2ccc(-c3ccccc3F)cc2)nc2ccc(F)cc2c1C(=O)O [BREQUINAR]
- IC50 (M21 [1]): 570 nM
- IC50 (Malme-3M): 15500 nM
- IC50 (SN12C): 1780 nM
- IC50 (UO-31): 1150 nM
- IC50 (IGROV-1): 302 nM
- IC50 (M21 [3]): 25000 nM
- IC50 (SR): 427 nM
- IC50 (M14): 4680 nM
- IC50 (NCI/ADR-RES): 2190 nM
- IC50 (Hs-578T): 6920 nM
- IC50 (LOX IMVI): 93.3 nM
- IC50 (HOP-92): 35500 nM
- IC50 (TK-10): 16200 nM
- IC50 (SF-268): 372 nM
- IC50 (SF-295): 240 nM
- IC50 (A498): 50100 nM
- IC50 (HOP-62): 1100 nM
- IC50 (SNB-75): 81300 nM
- IC50 (SNB-19): 1260 nM
- IC50 (UACC-257): 12600 nM
- IC50 (CAKI-1): 912 nM
- IC50 (UACC-62): 263 nM
- IC50 (KM12): 209 nM
- IC50 (SF-539): 347 nM
- IC50 (RXF 393): 11700 nM

- IC50 (HT-1080 [2]): 30000 nM
- IC50 (MCF7 [4]): 57000 nM
- IC50 (HT-29 [5]; read-out: IC50): 75000 nM
- IC50 (MCF7 [6]; read-out: IC50): 55000 nM
- IC50 (HT-29 [7]): 75000 nM
- IC50 (HT-1080 [8]): 38000 nM
SMILES: Cc1oncc1C(=O)Nc1ccc(C(F)(F)F)cc1 [LEFLUNOMIDE]
- IC50 (M21 [1]): 83000 nM
- IC50 (M21 [3]): 83000 nM
